The record followed here is patent EP1228058B1, “BENZOPYRANYL GUANIDINE DERIVATIVES, PROCESS FOR PREPARATION THEREOF, AND PHARMACEUTICAL COMPOSITIONS CONTAINING THEM” (Dongbu Hannong Chemical Co., Ltd., priority 1999, dated 2001).

Broadly, the % Inhibition is the drop in the measured response relative to a control, in per cent. A high value points to a response far below the control.

Assay [1] has as its system diabetic rats. As to the kind of experiment: Nociceptive test (hot plate test) in diabetic rats. Type of assay: in vivo. To be noted: 50 °C hot plate. The protocol:
Effects on nociceptive responses of test compounds in rats were examined using hot plate. The same methods were applied for the induction of diabetes and treatment of test compound in rats. Rats were placed onto 50 °C hot plate, then latencies of nociceptive action such as licking were determined. The recovery (%) of nociceptive responses in diabetic rats was calculated according to the following mathematical […]. [Mathematical formula 5] Recovery(%) =(Response in treated group - Response in diabetic control)/(Response in normal control-Response in diabetic control)x100 [formula]

In assay [2] the test system is diabetic rats. The assay is described as follows: Effects on MNCV (motor nerve conduction velocity) in diabetic rats. The class given is in vivo. To be noted: MNCV; 100 mg/Kg, orally once a day, diabetic rats. The protocol:
Diabetes was induced with i.p. (intra peritoneum) injection of streptozocin (65 mg/Kg) in rats, then test compounds dissolved in 2 ml of media (physiological saline: ethanol: tween 80 = 8:1:1), were orally administered once a day. Rats were anesthetized with halothane, then the sciatic nerve was exposed to measure MNCV. The nerve was stimulated at two points. The first stimulus electrode was inserted at proximal end, and second stimulating electrode was inserted at the sciatic notch. The coaxial needle electrode was inserted into interdigital muscle, then the muscle action potential induced by two point stimulation. The conduction velocity was calculated by dividing the distance between two stimulus points by the latency difference. Lipoic acid (100 mg/Kg) was used in comparison with the compound of formula 1 in recovery of impaired MNCV in diabetic rats. The recovery (%) of MNCV was calculated according to the following mathematical formula 4. [Mathematical formula 4] Recovery(%) =(MNCV of treated group - MNCV of diabetic rats)/(MNCV of normal control-MNCV of diabetic rats)x100 [formula]

Assay [3] has as its system Human LDL. As to the kind of experiment: Inhibition of copper-induced LDL oxidation (MDA, TBA method). The class given is biochemical. To be noted: CuSO4 10 uM, 18 hr. The protocol: Human LDL (sigma) was dissolved in distilled water at a concentration of 1 mg/ml. LDL was dialyzed against three changes of phosphate-buffered solution before oxidation to remove EDTA (ethylenediamine tetraacetate) at 4 °C for 18 hr. EDTA-free LDL (100 ug LDL protein/ml) was incubated in EDTA-free phosphate-buffered solution at 37 °C for 18 hr in the presence of CuSO4 (10 uM) under pretreatment with the test compounds or tochopherol of which final concentrations were 10^-9, 10^-7, and 10^-5 M. Blank was incubated without CuSO^., and vehicle was used as a solvent group. Oxidation was stopped at 4 °C by addition of EDTA (200 uM).
Copper (Cu^+2) facilitates the oxidation of LDL to produce malondialdehyde (MDA), thus the lipid peroxidation was determined by MDA quantification same as the above example 5 (1). The MDA quantification was estimated by reacting samples with 2-thiobarbituric acid (TBA) and measuring the absorbance at 530 nm. 1,1,3,3-Tetramethoxy propane (Sigma) was used as a standard agent, and calculated the quantity of MDA as nmol of MDA equivalents per mg protein. The inhibitory effect of the test compounds against the lipid peroxidation was evaluated by calculating MDA reduction rate of the test compounds compared with that of the control group.

The test system of assay [4] is A7r5. As to the kind of experiment: Inhibition of A7r5 mediated LDL oxidation (MDA). Type of assay: cell-based, rat. To be noted: for % Inhibition LDL + H2O2 (10^-7M): A7r5 plus H2O2 (10^-7 M); for % Inhibition LDL: A7r5 alone, LDL 100 ug/ml, 24 hr. The protocol:
A7r5 (ATCC CRL-1444, smooth muscles, thoracic aorta, BDIX rat) cells were cultured in 24 well plates, using the medium of DMEM (Dulbecco's modified Eagle's Medium) supplemented with 10% heat-inactivated FBS (fetal bovine serum) and 1% antibiotics. Confluent A7r5 from plates were washed with phosphate-buffered solution, and DMEM with 10% FBS and 1% antibiotics was added in a total volume of 0.5 ml/well. Cells (2 x 10^5 cells/ml) were preincubated without and with either test compounds (10^-6 - 10^-4 M) or Tocopherol (10^-6 - 10^-4 M) at 37 °C for 30 min. Then, A7r5 alone or A7r5 plus H2O2 (10^-7 M) were exposed to LDL (100 ug/ml) for 24 hr.
The inhibitory effect of the test compounds against the lipid peroxidation was evaluated by calculating MDA reduction rate of the test compounds compared with that of the control group same as the above example 5 (2).

A short description of assay [5]: ORAC (oxygen-radical absorbance capacity) assay. To be noted: 1 ORAC unit = net protection by 1 uM Trolox. Type of assay: biochemical. The protocol:
The method utilized β-PE (β-phycoerythrin) as an indicator protein, and AAPH (2,2'-azobis(2-amidinopropane) dihydrochloride) as a peroxy radical generator. Reaction mixtures consisted of test compounds (10^-6M and 10^-4M), β-PE (1.76 x 10^-8M), and AAPH (3 x 10^-3 M) in 75 mM phosphate buffer (pH 7.0). A final volume of 2 ml was used in 24 well plates. Test compounds were first dissolved in acetone and then added to the reaction mixture. Once AAPH was added, the reaction was initiated at 37 °C and the fluorescence (485 nm excitation, 590 nm emission) was measured every 5 min using Fluorescence reader (FL600, Biotek Instrument). The ORAC units were calculated based on the area under the fluorescence curve of β-PE in the presence of the test compound compared to the area generated by 1 uM Trolox. 1 ORAC unit represents the net protection provided by 1 uM Trolox.

The subject of assay [6] is HUVEC. As to the kind of experiment: Inhibition of intracellular ROS induced by H2O2 (H2DCFDA) in HUVEC. The class given is cell-based, Human. The protocol:
Measurement of intracellular ROS (Reactive Oxygen Species) was determined using H2DCFDA (2',7'-dichlorodihydrofluorescein diacetate, Molecular Probes, Eugene, OR, USA). H2DCFDA is a non-polar compound that readily diffused into cells, where it is hydrolyzed by intracellular esterase to polar derivative H2DCF (2',7'-dichlorodihydrofluorescein) which can not cross the cell membrane, and thereby trapped within the cell. H2DCF is low-fluorescent, but converted to high-fluorescent DCF (2',7'-dichlorofluorescein) by intracellular ROS. Therefore, the intracellular ROS formation can be determined from the amount of converted DCF. HUVEC (Human umbilical Vascular Endothelial Cells) or A7r5 (Rat thoracic aorta smooth muscle cells) were used. HUVEC were cultured in Kaighn's F12K medium supplemented with 10% heat-inactivated FBS, 0.1 mg/ml heparin sodium, 0.03-0.05 mg/ml ECGS (Endothelial cell growth supplement) and 1% antibiotics, and A7r5 were cultured in DMEM supplemented with 10% heat inactivated FBS and 1% antibiotics. To measure the intracellular ROS, HUVEC or A7r5 were preincubated for 30 min in the presence of test compounds (10^-7-10^-5 M). Thereafter, cells were stimulated with H2O2 (10^-6 and 10^-5 M for 20 min), and then incubated in the dark for 2 hr at 37 °C in 50 mM phosphate buffer (pH 7.4) containing 5 uM H2DCFDA. The quantity of DCF fluorescence (485 nm excitation, 530 nm emission) was measured using Fluorescence plate reader (FL600, Biotek Instruments).

On to `O=C(O)CCCCC1CCSS1` (stereo not shown) [Lipoic acid, reference compound], for which the “Nociceptive response” value in assay [1] (latency of licking) amounted to 4.371 s. The entries for the “Recovery (%)” value in assay [1] (nociceptive responses) and in assay [2] were 60.2% and 136.6%, respectively.

In the case of Tocopherol [reference compound], the “% Inhibition” value is recorded as 29.7% in assay [3] (10^-5 M); 21.3% in assay [3] (10^-7 M, 0.1 µM); 18.5% in assay [3] (10^-9 M, 0.001 µM). Moreover, the entries for the “% Inhibition LDL + H2O2 (10^-7M)” value in assay [4] (10^-4 M), in assay [4] (10^-5 M) and in assay [4] (10^-6 M) were 63.9%, 53.0% and 43.2%, respectively. The results for the “% Inhibition LDL” value in assay [4] (10^-5 M) and in assay [4] (10^-6 M) were 57.0% and 41.1%, respectively. The results for the ORAC units in assay [5] (Conc. 10^-4 M) and in assay [5] (Conc. 10^-6 M) were 1.568 ORAC units and 1.0 ORAC units, respectively. Moreover, the entries for the “Inhibition (%) H2O2 (10^-5M)” value in assay [6] (Conc. 10^-5 M), in assay [6] (Conc. 10^-6 M) and in assay [6] (Conc. 10^-7 M) were 51.0%, 30.7% and 8.8%, respectively. For the same compound, the “Inhibition (%) H2O2 (10^-6M)” value in assay [6] (Conc. 10^-5 M) was found to be 60.8%; in assay [6] (Conc. 10^-6 M) it was 43.2%; in assay [6] (Conc. 10^-7 M), 13.8%.
